# Measurements published in patent US20240279220A1, “INDOLE COMPOUNDS AND METHODS OF USE” (Genzyme Corporation, priority 2021, published 2024).
# Tested on: NBD1/3D
# Test: Aggregation analysis using differential static light scattering (DSLS), NBD1 thermal stability
# Type: binding, Human
# Settings: ΔTagg versus DMSO control; compound at 100 μM
# Summary of the method: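 Purified NBD1 at 0.2 mg/ml in S200 buffer (pH 7.6, 2 mM ATP, 5 mM MgCl2, 1% glycerol) was heated with compound at 1 °C/min to 70 °C. Tagg taken from the light-scattering curve inflection point; ΔTagg = compound Tagg minus mean DMSO control Tagg.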
row,Structure (SMILES),DSLS NBD1/3D Human Stability delta-T (° C.) @ 100 (μM)
1,"CC(C)(c1cnc(-c2cc(Oc3ccc4[nH]ccc4c3F)ccc2F)[nH]1)c1cccc(CCC(=O)O)c1F [Example 162, 3-(2-fluoro-3-(2-(2-(2-fluoro-5-((4-fluoro-1H-indol-5-yl)oxy)phenyl)-1H-imidazol-5-yl)propan-2-yl)phenyl)propanoic acid]",B (B: 5-10° C.)
2,"CC(O)(c1cccc(CCC(=O)O)c1)c1cnc(-c2cc(Oc3cc(F)c4[nH]ccc4c3F)ccc2F)[nH]1 (centres unmarked) [Example 197, 3-(3-(1-(2-(5-((4,7-difluoro-1H-indol-5-yl)oxy)-2-fluorophenyl)-1H-imidazol-5-yl)-1-hydroxyethyl)phenyl) propanoic acid]",B (B: 5-10° C.)
3,"CS(=O)(=O)c1c(Oc2ccc(F)c(-c3nc(Cc4cccc(CCC(=O)O)c4)cs3)c2)c(F)cc2[nH]ccc12 [Example 93, 3-(3-((2-(2-fluoro-5-((6-fluoro-4-(methylsulfonyl)-1H-indol-5-yl)oxy)phenyl)thiazol-4-yl)methyl)phenyl)propanoic acid]",B (B: 5-10° C.)
4,"O=C(O)CCc1cccc(C2(c3cnc(-c4cc(Oc5c(F)cc6[nH]ccc6c5F)ccc4F)[nH]3)CCOC2)c1 (centres unmarked) [Example 150, 3-(3-(3-(2-(5-((4,6-difluoro-1H-indol-5-yl)oxy)-2-fluorophenyl)-1H-imidazol-5-yl)tetrahydrofuran-3-yl)phenyl)propanoic acid]",A (A: T ≥ 10° C.)
5,"COCCOC(C)(c1cccc(CCC(=O)O)c1)c1cnc(-c2cc(Oc3c(F)c(F)c4[nH]ccc4c3C)ccc2F)[nH]1 (centres unmarked) [Example 234, 3-(3-(1-(2-(5-((6,7-difluoro-4-methyl-1H-indol-5-yl)oxy)-2-fluorophenyl)-1H-imidazol-5-yl)-1-(2-methoxyethoxy)ethyl)phenyl) propanoic acid]",B (B: 5-10° C.)
6,"O=C(O)CCCCc1cccc(Cc2nnc(-c3cccc(Oc4ccc5[nH]ccc5c4)c3)[nH]2)c1 [Example 258, 5-(3-((5-(3-((1H-indol-5-yl)oxy)phenyl)-4H-1,2,4-triazol-3-yl)methyl)phenyl)pentanoic acid]",C (C: ≤5° C.)
7,"CC(c1cnc(-c2cc(Oc3c(F)cc4[nH]ccc4c3F)ccc2F)[nH]1)c1cccc(CC(=O)O)c1F (single isomer, unassigned) [Example 131B, 2-(3-(1-(2-(5-((4,6-difluoro-1H-indol-5-yl)oxy)-2-fluorophenyl)-1H-imidazol-5-yl)ethyl)-2-fluorophenyl)acetic acid]",B (B: 5-10° C.)
8,"COC(c1cccc(CCC(=O)O)c1)c1cnc(-c2cc(Oc3c(F)cc4[nH]ccc4c3C)ccc2F)[nH]1 (centres unmarked) [Example 237, 3-(3-((2-(2-fluoro-5-((6-fluoro-4-methyl-1H-indol-5-yl)oxy)phenyl)-1H-imidazol-5-yl)(methoxy)methyl)phenyl) propanoic acid]",B (B: 5-10° C.)
9,"Cc1c(Oc2ccc(F)c(-c3ncc(C4(c5cccc(CCC(=O)O)c5)CCOC4)[nH]3)c2)c(F)cc2[nH]ccc12 (centres unmarked) [Example 153, 3-(3-(3-(2-(2-fluoro-5-((6-fluoro-4-methyl-1H-indol-5-yl)oxy)phenyl)-1H-imidazol-5-yl)tetrahydrofuran-3-yl)phenyl)propanoic acid]",A (A: T ≥ 10° C.)
10,"[2H]C([2H])([2H])C(C#N)(c1cccc(CCC(=O)O)c1)c1cnc(-c2cc(Oc3c(F)cc4[nH]ccc4c3C)ccc2F)[nH]1 (centres unmarked) [Example 59, 3-(3-(1-cyano-1-(2-(2-fluoro-5-((6-fluoro-4-methyl-1H-indol-5-yl)oxy)phenyl)-1H-imidazol-5-yl)ethyl-2,2,2-d3)phenyl)propanoic acid]",B (B: 5-10° C.)
11,"O=C(O)CCc1cccc(C(O)c2cnc(-c3cccc(Oc4c(F)cc5[nH]ccc5c4-c4nccs4)c3)[nH]2)c1 (centres unmarked) [Example 87, 3-(3-((2-(3-((6-Fluoro-4-(thiazol-2-yl)-1H-indol-5-yl)oxy)phenyl)-1H-imidazol-5-yl)(hydroxy)methyl)phenyl)propanoic acid]",B (B: 5-10° C.)
